Results on two molecules are retold here after article PMC8845285, “Serotoninergic receptor ligands improve Tamoxifen effectiveness on breast cancer cells” (BMC Cancer, 2022).

Like-named read-outs stand apart in the source and are kept apart here.

Assay type in all cases: cell-based, human
In one data set the test system is CTGF. Nature of the data set: CTGF mRNA levels in MCF7 cells, qPCR. The conditions noted are these: E2 100 nM, 72 h, estrogen-starved MCF7; for CTGF mRNA levels lower compared with untreated cells: SER at IC50 dose. The method, then: Total RNA was isolated from cells, quantified (NanoDrop spectrophotometer, Life Technologies, Carlsbad, CA, USA) and reverse transcribed according to the manufacturer’s instructions. Semiquantitative PCR and qPCR assays were performed according to manufacturer’s instructions for Bio-Rad T100 thermal cycler and CFX Connect Real Time system (Biorad, Hercules, CA, USA), respectively. Relative gene expression quantification was measured by 2^−ΔΔCt method normalizing for the reference sample using Rps23 (Ribosomal Protein S23) as housekeeping gene.
After 72 h, cell cycle was assessed by Propidium Iodide staining (see Methods). […] As positive control, the cells were treated with E2 and SER alone (without Tamoxifen, dotted line). After 72 h, cell viability was assessed by sulforhodamine B assay (see Methods). […] After 72 h, mRNA levels of CTGF were determined by qPCR (see Methods and Table 1). Data were normalized on Ribosomal Protein S23 (Rps23) gene as internal standard and were reported as CTGF mRNA levels in MCF7 treated with SER relative to those in untreated cells (dotted line). a-c Data represent the mean ± SD of at least three independent triplicate experiments. * denotes statistically significant values compared with (a) percentage of untreated cells in G0/G1, S and G2/M cell cycle phase (*pval<0.05,**pval<0.01), (b) positive control (*adjp<0.05,**adjp <0.01,***adjp<0.001), (c) untreated cells (pval<0.05); # denotes statistically significant values compared with cells treated with Tamoxifen in absence of SER (#pval<0.05)
Fig. 7 Effect of low doses of SER79 and SER68 on MCF7 and MCF10A cells. a Estrogen-starved MCF7 cells (48 h) were treated with Tamoxifen (5 μM) in presence of E2 (100nM) and SER79 (5 μM) or SER68 (20 μM, 5 μM). As positive control, the cells were treated with E2 and SER alone (without Tamoxifen, dotted line). After 72 h, cell viability was assessed by sulforhodamine B assay (see Methods). […] After 72 h, mRNA levels of CTGF were determined by qPCR (see Methods and Table 1). Data were normalized on Ribosomal Protein S23 (Rps23) gene as internal standard. Bars represent CTGF mRNA levels in MCF7 treated with SER relative to those in untreated cells (dotted line). c MCF10A non-cancer breast epithelial cells were treated with SER79 (5 μM) or SER68 (20 μM). After 72 h, cell viability was assessed by sulforhodamine B assay (see Methods).
(Quantitative PCR measures a nucleic acid by following its amplification.)

The next data set concerns MCF7 cells. Kind of data set: MCF7 cell viability, sulforhodamine B assay. The conditions noted are these: for IC50: Homo sapiens, MCF7. The procedure:
MCF7 (ER^+, PR^+, HER2^−), SKBR3 (ER^−, PR^+, HER2^+) and MDA-MB231 (ER^−, PR^−, HER2^−) human BC cells and MCF10A non-cancer breast epithelial cells were available in our laboratory. MCF7, SKBR3 and MDA-MB231 cells were cultured in DMEM, supplemented with 10% FBS, 2 mM glutamine, 100 units/ml penicillin and 100 units/ml streptomycin. MCF10A cells were cultured in MEBM, supplemented with 0.4% BPE, 0.1% hEGF, 0.1%, Insulin, 0.1% Hydrocortisone and 0.1% GA-1000. […] Treatment with SER were carried out in culture conditions. Treatment with Tamoxifen and/or SER were carried out upon 48 h estrogen starvation in phenol-red free medium supplemented with 10% Charcoal Stripped (C/S) FBS, 2 mM glutamine, 100 units/ml penicillin and 100 units/ml streptomycin.
Cells were fixed with 50% trichloroacetic acid for at least 2 h at 4 °C, washed with distilled and de-ionized water, air-dryed and stained 30 min with 0.4% sulforhodamine B in 1% acetic acid. Unbound dye was removed and 10 mM tris-HCl solution (pH 7.5) was added to dissolve the protein-bound dye. Cell survival was assessed by optical density determination at 510 nm using a microplate reader.
After 48 and 72 h, cell viability was assessed by sulforhodamine B assay (see Methods).
For orientation: The SRB assay estimates cell density from bound dye.

The next data set has as its system MCF10A cells. Nature of the data set: MCF10A non-cancer breast epithelial cell viability, sulforhodamine B assay. As to conditions: 72 h. The method, then: MCF7 (ER^+, PR^+, HER2^−), SKBR3 (ER^−, PR^+, HER2^+) and MDA-MB231 (ER^−, PR^−, HER2^−) human BC cells and MCF10A non-cancer breast epithelial cells were available in our laboratory. MCF7, SKBR3 and MDA-MB231 cells were cultured in DMEM, supplemented with 10% FBS, 2 mM glutamine, 100 units/ml penicillin and 100 units/ml streptomycin. MCF10A cells were cultured in MEBM, supplemented with 0.4% BPE, 0.1% hEGF, 0.1%, Insulin, 0.1% Hydrocortisone and 0.1% GA-1000. Cultures were maintained in a humidified atmosphere of 95% air and 5% CO2 at 37 °C. Treatment with SER were carried out in culture conditions. […]
Cells were fixed with 50% trichloroacetic acid for at least 2 h at 4 °C, washed with distilled and de-ionized water, air-dryed and stained 30 min with 0.4% sulforhodamine B in 1% acetic acid. […] Cell survival was assessed by optical density determination at 510 nm using a microplate reader.
Fig. 7 Effect of low doses of SER79 and SER68 on MCF7 and MCF10A cells. a Estrogen-starved MCF7 cells (48 h) were treated with Tamoxifen (5 μM) in presence of E2 (100nM) and SER79 (5 μM) or SER68 (20 μM, 5 μM). […] After 72 h, cell viability was assessed by sulforhodamine B assay (see Methods). […] After 72 h, mRNA levels of CTGF were determined by qPCR (see Methods and Table 1). […] After 72 h, cell viability was assessed by sulforhodamine B assay (see Methods). […]

[1] abbreviates: 48 h treatment, read-out: IC50 MCF7 48h.
Where [2] appears, read: 72 h treatment, read-out: IC50 MCF7.

Turning to `N#CN=C(NCCCN1CCN(C(c2ccc(F)cc2)c2ccc(F)cc2)CC1)c1ccccn1` [SER79], the “reduction of CTGF expression” value in the data set with CTGF (SER 5 μM) is recorded as “≈ 30%”. The “CTGF mRNA levels lower compared with untreated cells” value in the data set on CTGF was “≈ 60%”. For the same molecule, the “reduction of MCF7 cell viability” value in the data set on MCF7 cells (50 μM, 72 h) was “≈ 70%”. The values for the IC50 in the data set with MCF7 cells (setting [1]) and in the data set on MCF7 cells (setting [2]) were 85.1 ± 13.4 µM and 24.1 µM, respectively. Moreover, the “effect on MCF10A cell viability” value in the data set with MCF10A cells (5 μM) is “No effect was detected on cell viability”.
Turning to `O=C1C2C3C=CC(C3)C2C(=O)N1OCCN1CCN(c2ccc(Cl)c(Cl)c2)CC1` (centres unmarked) [SER68], in the data set with CTGF (SER 20 μM), the “reduction of CTGF expression” value was “≈ 50%”. Besides, the “CTGF mRNA levels lower compared with untreated cells” value in the data set on CTGF is given as “≈ 80%”. The figures for the IC50 in the data set on MCF7 cells (setting [1]) and with MCF7 cells (setting [2]) were 131 ± 13.8 µM and 54.2 ± 10.2 µM, respectively. The “effect on MCF10A cell viability” value with MCF10A cells (20 μM) was “No effect was detected on cell viability”.

One may read the IC50 as the concentration needed to halve the response being measured.
